Reference: US5763479A, “Naphthoquinone derivatives for the treatment of chronic inflammation” (KS Biomedix Ltd., priority 1991, dated 1998)
Like-named read-outs stand apart in the source and are kept apart here. Values belong to the compound of their own block, whether it stands above or below them.

Key:
[1] = redox potential (E1/8) against a standard calomel electrode; assay type: physicochemical; details: for E1/2 (mV): Table 2
G6PD [2] = target: T1, G6PD (Homo sapiens, UniProt P11413); assay: decrease in G6PD activity in synovial lining cells of human rheumatoid tissue maintained in vitro; assay type: cell-based; parameters: synovial lining cells of human rheumatoid tissue maintained in vitro; from tissue; host or cells: human rheumatoid synovial tissue (synovial lining cells), maintained in vitro; details: mean±SEM
Description: The percentage decreases in […] activity (mean±SEM) in the synovial lining cells of human rheumatoid tissue maintained in vitro, induced by naphthoquinone of formula I (R=H, X=O), including compounds outside the scope of the invention, are given in Table 2.

neotetrazolium chloride = details: sections of various tissues; compared with phenazine methosulphate; cited from earlier work
solubility = assay type: physicochemical
immune arthritis = details: rabbits fed by gavage, cited from earlier work
[3] = chemical stability and reactivity; assay type: physicochemical; details: no double bond between positions 2 and 3
G6PD [4] = target: T1, G6PD; assay: G6PD activity before and after intra-articular injection in patients with chronic arthritic inflammation; assay type: in vivo
Description: (§1) Two human patients suffering from chronic arthritic inflammation were given intra-articular injections of menadione bisulphite. The G6PD activity (mean integrated extinction ×10^3 /10 min) and lysosomal latency (% bound activity) were measured before and after injection. The G6PD activity decreased from 423 to 188 in one case and from 245 to 127 in the other; the lysosomal latency increased, respectively from 0 to 13 and from 0 to 31 (normal values are around 40% latency).

lysosomal latency = lysosomal latency before and after intra-articular injection in patients with chronic arthritic inflammation; assay type: in vivo, human; details: before injection 0, normal around 40%
Description: as §1

chronic RA = assay: therapeutic efficacy by intra-articular injection in chronic RA patients; assay type: in vivo, human; details: intra-articular injections
Description: Other soluble compounds of the invention are menadiol diphosphate, menadiol disulphate and 2-methyl-1,4-naphthohydroquinone bis(hydrogen succinate), sodium salt.

[5] = test system: glucose 6-phosphate dehydrogenase (G6PD); assay: G6PD in synovial lining cells of arthritic rabbits (Example 2); assay type: in vivo, rabbit
Description: (§2) In each of separate groups of six, rabbits were treated with the same volume of either olive oil alone or dimethoxynaphthoquinone in olive oil for six weeks after the initiation of arthritis (six weeks after challenge). The treatment was 25 mg/kg orally twice a week.
(§3) The rabbits were investigated for the concentration of G6PD, 6PGL and 6PGD in synovial lining cells. The respective mean values (±SEM) for the treatment of olive oil alone were 15.4±1.9, 2.5±0.3 and 8.2±1.1; the results for those treated with dimethoxynaphthoquinone were 7.7±1.2, negligible and 4.6±1.1.

[6] = test system: 6-phosphogluconolactonase (6PGL); assay: 6PGL in synovial lining cells of arthritic rabbits (Example 2); assay type: in vivo, rabbit; details: 25 mg/kg orally twice a week, six weeks; olive oil alone 2.5±0.3
Description: as §2, §3

[7] = test system: 6-phosphogluconate dehydrogenase (6PGD); assay: 6PGD in synovial lining cells of arthritic rabbits (Example 2); assay type: in vivo, rabbit; details: 25 mg/kg orally twice a week, six weeks; olive oil alone 8.2±1.1
Description: as §2, §3

challenged joint = assay: established immune (ovalbumin) arthritis in rabbits, oral menadione epoxide: joint temperature and degree of inflammation; assay type: in vivo, rabbit (New Zealand white)
Description: (§4) Twenty-two female New Zealand white rabbits (initial weight 1.5-2.0 kg) were immunised subcutaneously between the scapulae, with 0.5 ml of complete Freund's adjuvant containing 2.5 mg of ovalbumin (Sigma). A booster inoculation was given two weeks later. Four weeks after this, the right knee was challenged with an intra-articular injection (0.5 ml) of sterile saline containing ovalbumin (10 mg/ml). One week before this; twice a week for the next two weeks; and weekly thereafter, the temperature of both knees was measured on the medial side of the patella by means of a Digi-Sense thermocouple thermometer (Cole-Palmer Instrument Co., Chicago, Ill., U.S.A.). They were skin-tested before challenge to ensure that the cell-mediated immunity was equivalent in the treated and control rabbits. […] They were killed in pairs, treated and untreated, by intravenous injection of phenobarbitone sodium at various intervals from five to nine weeks later. After removal, the synovial tissue was cut into pieces of not greater than 0.5 cm^3; these were immersed for up to 1 min in a 5% solution of polyvinyl alcohol containing 5% CaCl2.2H2 O (Chayen et al, 1973) and then chilled to -70 ° C. in n-hexane (BDH: low in aromatic hydrocarbons grade). The tissue was stored in dry tubes at -70° C. and examined within two weeks.
Sections were cut (10 μm) in a Bright's cryostat (cabinet temperature of -30° C.) with the knife cooled with solid carbon dioxide. The sections were flash-dried on to slides taken from the ambient temperature of the laboratory (Chayen et al, 1973) and stored briefly in a desiccator before being tested for enzymatic activity.
Depending on the amount of tissue, sections were taken from up to fifteen regions of each challenged joint and stained with 0.1% toluidine blue in 0.1M acetate buffer, pH 6.1. They were assessed for thickening of the synovial lining cell layer; degree of infiltration by both chronic and acute inflammatory cells; and fibrosis. Each of these criteria was evaluated on a scale that ranged from 0 to ++. A value based on all these criteria was given for the response in each challenged joint and the degree of inflammation of the whole joint was assessed on an arbitrary scale of - to ++.

[8] = test system: 6-phosphogluconolactonase (6PGL); assay: 6PGL activity in synovial lining and desquamating cells of arthritic rabbits treated with menadione epoxide; assay type: in vivo, rabbit
Description: as §4, with “weeks. […]” for “weeks.”

[9] = test system: glucose 6-phosphate dehydrogenase (G6PD); assay: G6PD activity in synovial lining and desquamating cells of arthritic rabbits treated with menadione epoxide; assay type: in vivo, rabbit
Description: as §4, with “weeks. […]” for “weeks.”

T1 sequence (P11413 2-515 limits assumed): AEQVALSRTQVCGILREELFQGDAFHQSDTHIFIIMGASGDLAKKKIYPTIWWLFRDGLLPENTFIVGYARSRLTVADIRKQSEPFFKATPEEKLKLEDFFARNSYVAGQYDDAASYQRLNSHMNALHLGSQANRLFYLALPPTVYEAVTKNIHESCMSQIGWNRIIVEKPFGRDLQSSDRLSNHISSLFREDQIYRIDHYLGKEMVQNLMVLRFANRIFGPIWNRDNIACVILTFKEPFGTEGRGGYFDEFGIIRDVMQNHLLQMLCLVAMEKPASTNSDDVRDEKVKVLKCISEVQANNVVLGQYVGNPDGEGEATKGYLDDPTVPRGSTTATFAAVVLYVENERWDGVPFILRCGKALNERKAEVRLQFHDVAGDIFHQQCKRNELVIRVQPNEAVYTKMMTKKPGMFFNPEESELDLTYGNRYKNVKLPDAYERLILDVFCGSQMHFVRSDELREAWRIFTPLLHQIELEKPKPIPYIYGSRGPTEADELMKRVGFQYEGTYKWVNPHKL

SMILES: CC1=CC(=O)c2ccccc2C1=O [menadione, 2-methyl-1,4-naphthoquinone]
transfer of reducing equivalents to neotetrazolium chloride (neotetrazolium chloride): as effective as phenazine methosulphate
E1/2 (mV) [1]: -220 mV
redox potential (E1/8) ([1]; recorded against a standard calomel electrode, 90% ethanol-0.005M acetate buffer pH 4.0): -220 mV
% decrease in G6PD (G6PD [2]): 38 ± 6.9%
solubility (solubility): lipid soluble
chronic inflammation assessed histologically and by enzyme activity in synovial lining cells (immune arthritis; versus control animals): marked diminution
effect on immune arthritis (immune arthritis): significantly ameliorates
effect on immune arthritis (immune arthritis; listed as Menadione): effective

SMILES: COC1=C(OC)C(=O)c2ccccc2C1=O [dimethoxynaphthoquinone, 2,3-dimethoxy-1,4-naphthoquinone]
concentration of G6PD in synovial lining cells (mean ±SEM) ([5]; 25 mg/kg orally twice a week, six weeks, olive oil alone 15.4±1.9): 7.7±1.2
effect on all three enzyme activities: G6PD ([5]; summary in words for G6PD, 6PGL and 6PGD): greatly reduced
concentration of 6PGL in synovial lining cells (mean ±SEM) [6]: negligible
E1/2 (mV) [1]: -250 mV
% decrease in G6PD (G6PD [2]): 49 ± 14.0%
concentration of 6PGD in synovial lining cells (mean ±SEM) [7]: 4.6±1.1

SMILES: CC12OC1C(=O)c1ccccc1C2=O (centres unmarked) [menadione epoxide]
median overall difference in temperature expressed per day (group) (challenged joint; from two weeks after treatment until killed, control median 0.589 (0.308 to 0.687), p=0.04): 0.096 °C day
overall degree of inflammation in the challenged joint (challenged joint; one of the twelve treated rabbits (totally negative)): -
overall difference in temperature between challenged and unchallenged knees, expressed per day (single rabbit) (challenged joint; one treated rabbit, from two weeks after start of treatment until killed, 25 mg/kg bi-weekly by gavage, control rabbit 0.7110): 0.096 °C
inflammation assessed by temperature in vivo, visual inspection post mortem and histological examination (challenged joint; oral administration, established chronic inflammation): marked decrease in the inflammation
6PGL activity in the desquamating cells ([8]; desquamating cells, despite very elevated G6PD): no equivalent increase
effect on 6PGL activity ([8]; synovial lining cells): decrease both activities towards normal levels
G6PD activity in the desquamating cells ([9]; desquamating cells, as against 25.5 units in "rheumatoid" intact lining cells and 6 units in normal joints): 45.7 units
effect on G6PD activity ([9]; synovial lining cells): decrease both activities towards normal levels

SMILES: CC1=C(SC[C@H](NC(=O)CC[C@H](N)C(=O)O)C(=O)NCC(=O)O)C(=O)c2ccccc2C1=O [3-glutathionylmenadione, reference compound]
E1/2 (mV) [1]: -170 mV
% decrease in G6PD (G6PD [2]): 37 ± 13.0%

SMILES: CC1=C(SCCC(N)C(=O)O)C(=O)c2ccccc2C1=O (centres unmarked) [3-homocysteinylmenadione, reference compound]
E1/2 (mV) [1]: -190 mV
% decrease in G6PD (G6PD [2]): 25 ± 9.7%

Further lines, with some results ahead:

E1/2 (mV) [1]: -355 mV
% decrease in G6PD (G6PD [2]): 47 ± 11.5%
SMILES: CC1=C(O)C(=O)c2ccccc2C1=O [phthiocol]

reactivity with thiols [3]: unreactive
redox potential (E1/8) measured in human plasma ([1]; human plasma): -640 mV
redox potential compared with menadione ([1]; versus menadione): higher redox potential than menadione
SMILES: CC1(S(=O)(=O)O)CC(=O)c2ccccc2C1=O (centres unmarked) [menadione bisulphite, 2-methyl-l,4-dioxotetralin-sulphonate]
G6PD activity after injection (G6PD [4]; first patient, before injection 423): 188 mean integrated extinction ×10^3 /10 min
G6PD activity after injection (G6PD [4]; second patient, before injection 245): 127 mean integrated extinction ×10^3 /10 min
lysosomal latency after injection (lysosomal latency; first patient): 13 % bound activity
lysosomal latency after injection (lysosomal latency; second patient): 31 % bound activity
therapeutic efficacy (chronic RA): demonstrated

E1/2 (mV) [1]: -290 mV
% decrease in G6PD (G6PD [2]): 61%
SMILES: CC1=C(C)C(=O)c2ccccc2C1=O [dimethylnaphthoquinone, 2,3-dimethyl-1,4-naphthoquinone]
